B1: AeD7L1: D7 long form salivary protein from Ae. aegypti (GenBank: AAA29347) (protein, UniProt P18153 18-321, looked up)
Long form salivary protein …: STGPFDPEEMLFTFTRCMEDNLEDGPNRLPMLAKWKEWINEPVDSPATQCFGKCVLVRTGLYDPVAQKFDASVIQEQFKAYPSLGEKSKVEAYANAVQQLPSTNNDCAAVFKAYDPVHKAHKDTSKNLFHGNKELTKGLYEKLGKDIRQKKQSYFEFCENKYYPAGSDKRQQLCKIRQYTVLDDALFKEHTDCVMKGIRYITKNNELDAEEVKRDFMQVNKDTKALEKVLNDCKSKEPSNAGEKSWHYYKCLVESSVKDDFKEAFDYREVRSQIYAFNLPKKQVYSKPAVQSQVMEIDGKQCPQ

Assays:
AlboD7L1 = target: T1, AlboD7L1 (Aedes albopictus, UniProt Q5MIW7); assay: biochemical; format: binding; details: for ΔH (kcal/mol) ± SE / −TΔS: ITC, 30 °C, TBS pH 7.4, single-site model, N fixed = 1
T1 construct: made in house; host or cells: Escherichia coli BL21 (DE3) pLysS
T1 sequence (Q5MIW7 22-332 limits assumed): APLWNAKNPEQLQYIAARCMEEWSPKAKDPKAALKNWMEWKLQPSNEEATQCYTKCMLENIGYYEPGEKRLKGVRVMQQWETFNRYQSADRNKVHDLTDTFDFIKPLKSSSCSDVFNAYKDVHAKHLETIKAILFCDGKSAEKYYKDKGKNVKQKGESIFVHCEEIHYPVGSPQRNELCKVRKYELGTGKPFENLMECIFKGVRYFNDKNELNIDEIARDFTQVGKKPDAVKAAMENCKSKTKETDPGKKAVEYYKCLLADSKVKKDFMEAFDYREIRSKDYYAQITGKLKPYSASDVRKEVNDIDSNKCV
Method: To identify the potential biological function of AlboD7L1, isothermal titration calorimetry (ITC) was used to determine its binding affinities to putative ligands that are known to affect inflammation and hemostasis (biogenic amines, leukotrienes, and thromboxane A2). Measurements were performed on a MicroCal VP-ITC (Malvern Panalytical, Westborough, MA, USA) at 30 °C and stir speed at 286 rpm. […] Protein and ligands were diluted in Tris-buffered saline (TBS-20 mM Tris-HCl, 150 mM NaCl, pH 7.4) and degassed under vacuum for 5 min using a MicroCal ThermoVac (Malvern Panalytical, Westborough, MA, USA). The AlboD7L1 concentrations were 2 μM, 3 μM, or 5 μM, and ligand concentrations were prepared at 10-fold the protein concentration (20 μM, 30 μM, or 50 μM), depending on protein/ligand combination for optimal ITC performance. For eicosanoid ligands, the solvent was first evaporated under a stream of nitrogen gas prior to dissolving in TBS, vortexed, and sonicated for 10 min (Branson 1510, Branson Ultrasonics, Danbury, CT, USA) to ensure dissolution. The protein sample volume in the cell was 1.4 mL, and ligand injections were delivered in 10 μL volume in a total of 31 injections. The data was analyzed using the MicroCal PEAQ-ITC analysis software v 1.21 (Malvern Panalytical, Westborough, MA, USA) by fitting to a single-site binding model to obtain the stoichiometry (N), the dissociation constant (KD), the enthalpy of binding (ΔH), and the entropy change (ΔS°) at a constant temperature (T).

AeD7L1 = test system: AeD7L1; design: method as in PMID 19234127; details: cited from earlier work
platelet rich plasma = assay: Ex vivo platelet aggregation (light transmission aggregometer); format: cell-based, human; details: lower U-46619 doses (Supplementary Figure S3A)
Method: Platelet rich plasma was obtained from normal healthy donors on the NCI IRB approved NIH protocol 99-CC-0168, “Collection and Distribution of Blood Components from Healthy Donors for In Vitro Research Use.” Blood donors provided written informed consent, and platelets were de-identified prior to distribution. Platelet aggregation was measured using a light transmission aggregometer (Chrono-Log Corporation, Havertown, PA, USA). Briefly, 300 μL of platelet rich plasma, diluted to approximately 2.5 × 10^5 platelets/μL in HEPES-Tyrode’s buffer (137 mM NaCl, […], 12 mM NaHCO3, 0.34 mM sodium phosphate monobasic, 1 mM MgCl2, 2.9 mM KCl, 5 mM HEPES, 5 mM glucose, 1% BSA, 0.03 mM EDTA, pH 7.4) were pre-stirred in the aggregometer for 1 min to monitor pre-aggregation effects. Recombinant AlboD7L1 or Tyrode’s buffer as negative control were added to the platelet rich plasma before adding the agonists. Aggregation agonists used in our studies included serotonin, epinephrine, collagen type I fibrils from equine tendons, U-46619, ADP or combination of agonists. Their concentrations are specified in the figure or figure captions. Technical duplicates were performed. For experiments shown in Figure 6 a Chrono-Log aggregometer model 500-CA was used while experiments shown in Supplementary Figure S3 were done in a Chrono-Log model 700.

Molecule | Kd (AlboD7L1) [nM] | ΔH (kcal/mol) ± SE (AlboD7L1) [kcal/mol] | −TΔS (AlboD7L1) [kcal/mol] | binding to AeD7L1 (AeD7L1) | platelet aggregation initiated with lower doses of U-46619 (platelet rich plasma)
NCCc1ccc(O)c(O)c1 [Dopamine, dopamine] | 11 ± 2.19 | -12.3 ± 0.197 | 1.23 | – | –
CNC[C@H](O)c1ccc(O)c(O)c1 [Epinephrine, epinephrine] | 4110 ± 3330 | -6.83 ± 0.809 | -0.637 | – | –
NCCc1c[nH]cn1 [Histamine, histamine] | 278 ± 66.2 | -7.47 ± 0.378 | -1.63 | – | –
CCCCC/C=C\C[C@@H](O)/C=C/C=C/C=C\[C@@H](O)CCCC(=O)O [LTB4, leukotriene B4] | 342 ± 65 | -2.74 ± 0.085 | -6.23 | – | –
CCCCC/C=C\C\C=C/C=C/C=C/[C@@H](SC[C@H](NC(=O)CC[C@H](N)C(=O)O)C(=O)NCC(=O)O)[C@@H](O)CCCC(=O)O [LTC4] | 67.7 ± 22.4 | -7.90 ± 0.350 | -2.05 | – | –
CCCCC/C=C\C\C=C/C=C/C=C/[C@@H](SC[C@H](N)C(=O)NCC(=O)O)[C@@H](O)CCCC(=O)O [LTD4] | 332 ± 48.3 | -5.00 ± 0.139 | -3.98 | – | –
CCCCC/C=C\C\C=C/C=C/C=C/[C@@H](SC[C@H](N)C(=O)O)[C@@H](O)CCCC(=O)O [LTE4, leukotriene E4] | 567 ± 115 | -3.98 ± 0.180 | -4.69 | – | –
NC[C@H](O)c1ccc(O)c(O)c1 [Norepinephrine, norepinephrine] | 3.67 ± 0.994 | -11.6 ± 0.186 | -0.116 | – | –
NCCc1c[nH]c2ccc(O)cc12 [Serotonin, serotonin] | 4.51 ± 2.66 | -13.7 ± 0.445 | 2.13 | – | –
NCCc1c[nH]c2ccccc12 [Tryptamine, tryptamine] | 570 ± 97.7 | -6.43 ± 0.223 | -2.23 | – | –
CCCCCC(O)C=CC1C2CC(CO2)C1CC=CCCCC(=O)O (centres unmarked) [U-46619] | 946 ± 269 | -8.54 ± 0.785 | 0.189 | does not bind | –
B1 | – | – | – | – | inhibits platelet aggregation
